# Assay results published in publication PMC6147803 (Acta Pharmaceutica Sinica. B, 2018).
# Biological target: T1, PTP1B (Homo sapiens, UniProt P18031)
# T1 sequence (P18031 1-435): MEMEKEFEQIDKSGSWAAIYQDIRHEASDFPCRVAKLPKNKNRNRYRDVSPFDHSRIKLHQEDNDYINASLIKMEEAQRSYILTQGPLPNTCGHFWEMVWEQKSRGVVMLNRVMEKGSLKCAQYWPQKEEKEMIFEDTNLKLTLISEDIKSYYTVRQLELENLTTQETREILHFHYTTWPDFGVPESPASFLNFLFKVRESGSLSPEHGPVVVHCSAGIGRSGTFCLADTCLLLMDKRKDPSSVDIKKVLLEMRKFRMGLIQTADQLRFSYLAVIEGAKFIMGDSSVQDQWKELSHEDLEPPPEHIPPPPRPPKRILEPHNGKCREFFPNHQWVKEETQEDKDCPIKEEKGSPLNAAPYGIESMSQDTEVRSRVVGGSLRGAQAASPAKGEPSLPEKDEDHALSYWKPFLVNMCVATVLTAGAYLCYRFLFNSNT
# Experiment: p-NPP dephosphorylation end-point assay at […] nm, […] compound
# Type: biochemical
# Settings: read-out: % inhibition at 10 μmol/L
compound,measurement,value
"COc1c(O)ccc(/C=C/C(=O)O)c1SC[C@@H](O)C(=O)O [compound 1, (S)-2-(2-carboxyl-2-hydroxyethylthio)-ferulic acid]",inhibition at 10 µM,19.6%
